For experiment [1], the target named is T1, HCV NS5B (Hepatitis C virus genotype 1b, UniProt Q9WMX2).
T1 construct: fusion protein, of which the carboxyl terminal 21 amino acids were removed to enhance its solubility; His tag (GSHHHHHH); made in house; host or cells: E. coli
Nature of the experiment: Inhibition of viral RNA-dependent RNA polymerase (RdRp), in vitro biochemical assay. Also noted: species or system HCV genotype 1b virus (BB7). The settings on record: HCV NS5B polymerase, BB7 (genotype 1b); values given as range classes A-D; read-out: HCV pol-BB7 IC50. The method, boiled down: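 Purified recombinant NS5B from a genotype 1b consensus (BB7), His-tagged, E. coli-expressed, with the C-terminal 21 residues deleted. Inhibition of RdRp activity in vitro was measured, and IC50 is the concentration giving 50% inhibition.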

The subject of experiment [2] is HCV replicon (BB7 sequence) in Huh-7-Clone A cells. Nature of the experiment: HCV replicon assay: ELISA of NS5A protein in replicon-containing cells (Inhibition of Viral RNA Replication). Type of experiment: cell-based. The settings on record: Hepatitis C virus; HCV replicon assay; ranges of 50% effective concentration (EC50); read-out: Replicon. Summed up: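 Huh-7-Clone A cells carrying subgenomic BB7 HCV replicon (G418-selectable) incubated 72 h with compound. NS5A protein quantified by cell ELISA: glutaraldehyde fixation, anti-NS5A monoclonal plus HRP secondary, TMB read at OD 650 nm. EC50 derived from 8-point serial dilution dose curve.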
In general terms: Replicon systems follow genome replication, usually without infectious particles.

As a reminder, the IC50 is the midpoint of a concentration-inhibition curve.

On to `CNC(=O)c1c(-c2ccc(F)cc2)oc2cc(N(C)S(C)(=O)=O)c(OCC(=O)OC(C)(C)C)cc12` [Example 382, [2-(4-Fluoro-phenyl)-6-(methanesulfonyl-methyl-amino)-3-methylcarbamoyl-benzofuran-5-yloxy]-acetic acid tert-butyl ester], for which, in experiment [1], the IC50 was no more than 500 nM. In addition, in experiment [2], the EC50 is less than 1000 nM.
On the same counts, the results for `CNC(=O)c1c(-c2ccc(F)cc2)oc2cc(-c3nc(C)n[nH]3)c(OC)cc12` [Example 383, 2-(4-Fluoro-phenyl)-5-methoxy-6-(5-methyl-2H-[1,2,4]triazol-3-yl)-benzofuran-3-carboxylic acid methylamide] are 500 to 5000 nM and less than 10000 nM.
For `CNC(=O)c1c(-c2ccc(F)cc2)oc2cc(C(C)(C)N)c(OC)cc12` [Example 384, 6-(1-Amino-1-methyl-ethyl)-2-(4-fluoro-phenyl)-5-methoxy-benzofuran-3-carboxylic acid methylamide], the IC50 in experiment [1] is 500 to 5000 nM. For the same compound, the EC50 in experiment [2] was less than 30000 nM.
With `CNC(=O)c1c(-c2ccc(F)cc2)oc2cc(C(C)(C)NC(C)=O)c(OC)cc12` [Example 385, 6-(1-Acetylamino-1-methyl-ethyl)-2-(4-fluoro-phenyl)-5-methoxy-benzofuran-3-carboxylic acid methylamide], in experiment [1], the IC50 was no more than 500 nM. For the same compound, the EC50 in experiment [2] was less than 1000 nM.
On the same counts, the results for `CNC(=O)c1c(-c2ccc(F)cc2)oc2cc(N(C)S(C)(=O)=O)c(OCC(=O)O)cc12` [Example 386, [2-(4-Fluoro-phenyl)-6-(methanesulfonyl-methyl-amino)-3-methylcarbamoyl-benzofuran-5-yloxy]-acetic acid] are no more than 500 nM and less than 30000 nM.
With `CNC(=O)c1c(-c2ccc(F)cc2)oc2cc(-c3nc(C)nn3C)c(OC)cc12` [Example 387, 6-(2,5-Dimethyl-2H-[1,2,4]triazol-3-yl)-2-(4-fluoro-phenyl)-5-methoxy-benzofuran-3-carboxylic acid methylamide], in experiment [1], the IC50 was in the range of 500 to 5000 nM. For the same compound, the EC50 in experiment [2] was less than 10000 nM.
On the same counts, the results for `CNC(=O)c1c(-c2ccc(F)cc2)oc2cc(N(C)S(C)(=O)=O)c(OCc3nccs3)cc12` [Example 388, 2-(4-Fluoro-phenyl)-6-(methanesulfonyl-methyl-amino)-5-(thiazol-2-ylmethoxy)-benzofuran-3-carboxylic acid methylamide] are no more than 500 nM and less than 1000 nM.
As to `CNC(=O)c1c(-c2ccc(F)cc2)oc2cc(C3(C)NC(=O)NC3=O)c(OC)cc12` (centres unmarked) [Example 389, 2-(4-Fluoro-phenyl)-5-methoxy-6-(4-methyl-2,5-dioxo-imidazolidin-4-yl)-benzofuran-3-carboxylic acid methylamide], the IC50 in experiment [1] was no more than 500 nM. Moreover, the EC50 in experiment [2] was less than 10000 nM.
With `CNC(=O)c1c(-c2ccc(F)cc2)oc2cc(C(C)(C)NS(C)(=O)=O)c(OC)cc12` [Example 390, 2-(4-Fluoro-phenyl)-6-(1-methanesulfonylamino-1-methyl-ethyl)-5-methoxy-benzofuran-3-carboxylic acid methylamide], in experiment [1], the IC50 is no more than 500 nM. Moreover, the EC50 in experiment [2] was less than 10000 nM.
The corresponding values for `CNC(=O)c1c(-c2ccc(F)cc2)oc2cc(N(Cc3cccc(CBr)n3)S(C)(=O)=O)c(OCc3cccc(CBr)n3)cc12` [Example 391, 5-(6-Bromomethyl-pyridin-2-ylmethoxy)-6-[(6-bromomethyl-pyridin-2-ylmethyl)-methanesulfonyl-amino] 2-(4-fluoro-phenyl)-benzofuran-3-carboxylic acid methylamide] are no more than 500 nM and less than 10000 nM.
Consider `CCOC(=O)c1csc(COc2cc3c(C(=O)NC)c(-c4ccc(F)cc4)oc3cc2N(C)S(C)(=O)=O)n1` [Example 392, 2-[2-(4-Fluoro-phenyl)-6-(methanesulfonyl-methyl-amino)-3-methylcarbamoyl-benzofuran-5-yloxymethyl]-thiazole-4-carboxylic acid ethyl ester], for which, in experiment [1], the IC50 was no more than 500 nM. The EC50 in experiment [2] was less than 1000 nM.
`CNC(=O)c1c(-c2ccc(F)cc2)oc2cc(N(C)S(C)(=O)=O)c(OCc3nc(C(=O)O)cs3)cc12` [Example 393, 2-[2-(4-Fluoro-phenyl)-6-(methanesulfonyl-methyl-amino)-3-methylcarbamoyl-benzofuran-5-yloxymethyl]-thiazole-4-carboxylic acid]: in experiment [1], the IC50 was no more than 500 nM. Further, the EC50 in experiment [2] is greater than 30000 nM.
The corresponding values for `CNC(=O)c1c(-c2ccc(F)cc2)oc2cc(N(C)C)c(OC)cc12` [Example 394, 6-Dimethylamino-2-(4-fluoro-phenyl)-5-methoxy-benzofuran-3-carboxylic acid methylamide] are no more than 500 nM and less than 1000 nM.
Turning to `CNC(=O)c1c(-c2ccc(F)cc2)oc2cc(N(C)S(C)(=O)=O)c(OCC#N)cc12` [Example 395, 5-Cyanomethoxy-2-(4-fluoro-phenyl)-6-(methanesulfonyl-methyl-amino)-benzofuran-3-carboxylic acid methylamide], in experiment [1], the IC50 was no more than 500 nM. Further, the EC50 in experiment [2] was less than 1000 nM.
The corresponding values for `CNC(=O)c1c(-c2ccc(F)cc2)oc2cc(N(C)S(C)(=O)=O)c(OCc3cc(C)on3)cc12` [Example 396, 2-(4-Fluoro-phenyl)-6-(methanesulfonyl-methyl-amino)-5-(5-methyl-isoxazol-3-ylmethoxy)-benzofuran-3-carboxylic acid methylamide] are no more than 500 nM and less than 1000 nM.
The corresponding values for `CNC(=O)c1c(-c2ccc(F)cc2)oc2cc(N(C)S(C)(=O)=O)c(OCc3nnsc3Cl)cc12` [Example 397, 5-(5-Chloro-[1,2,3]thiadiazol-4-ylmethoxy)-2-(4-fluoro-phenyl)-6-(methanesulfonyl-methyl-amino)-benzofuran-3-carboxylic acid methylamide] are no more than 500 nM and less than 1000 nM.
Turning to `CNC(=O)c1c(-c2ccc(F)cc2)oc2cc(N(C)S(C)(=O)=O)c(OCc3nccn3C)cc12` [Example 398, 2-(4-Fluoro-phenyl)-6-(methanesulfonyl-methyl-amino)-5-(1-methyl-1H-imidazol-2-ylmethoxy)-benzofuran-3-carboxylic acid methylamide], the IC50 in experiment [1] was no more than 500 nM. In addition, in experiment [2], the EC50 is less than 1000 nM.
The corresponding values for `CNC(=O)c1c(-c2ccc(F)cc2)oc2cc(-c3c(C)noc3C)c(OCc3cscn3)cc12` [Example 401, 6-(3,5-Dimethyl-isoxazol-4-yl)-2-(4-fluoro-phenyl)-5-(thiazol-4-ylmethoxy)-benzofuran-3-carboxylic acid methylamide] are no more than 500 nM and less than 1000 nM.
Consider `CNC(=O)c1c(-c2ccc(F)cc2)oc2cc(N(C)S(C)(=O)=O)c(OCc3nnc(N)[nH]3)cc12` [Example 402, 5-(5-Amino-4H-[1,2,4]triazol-3-ylmethoxy)-2-(4-fluoro-phenyl)-6-(methanesulfonyl-methyl-amino)-benzofuran-3-carboxylic acid methylamide], for which, in experiment [1], the IC50 is no more than 500 nM. Also, the EC50 in experiment [2] is less than 1000 nM.
As for `CNC(=O)c1c(-c2ccc(F)cc2)oc2cc(N(C)S(C)(=O)=O)c(OCc3nn(C)cc3Cl)cc12` [Example 403, 5-(4-Chloro-1-methyl-1H-pyrazol-3-ylmethoxy)-2-(4-fluoro-phenyl)-6-(methanesulfonyl-methyl-amino)-benzofuran-3-carboxylic acid methylamide], the IC50 in experiment [1] was no more than 500 nM. In experiment [2], the EC50 was less than 1000 nM.
The corresponding values for `CNC(=O)c1c(-c2ccc(F)cc2)oc2cc(N(C)S(C)(=O)=O)c(OCCn3cccn3)cc12` [Example 404, 2-(4-Fluoro-phenyl)-6-(methanesulfonyl-methyl-amino)-5-(2-pyrazol-1-yl-ethoxy)-benzofuran-3-carboxylic acid methylamide] are no more than 500 nM and less than 1000 nM.
With `CNC(=O)c1c(-c2ccc(F)cc2)oc2cc(N(C)S(C)(=O)=O)c(OCc3ncc[nH]3)cc12` [Example 405, 2-(4-Fluoro-phenyl)-5-(1H-imidazol-2-ylmethoxy)-6-(methanesulfonyl-methyl-amino)-benzofuran-3-carboxylic acid methylamide], the IC50 in experiment [1] is no more than 500 nM. Moreover, the EC50 in experiment [2] was less than 1000 nM.
The corresponding values for `CNC(=O)c1c(-c2ccc(F)cc2)oc2cc(C3NC(=O)NC3=O)c(OC)cc12` (centres unmarked) [Example 406, 6-(2,5-Dioxo-imidazolidin-4-yl)-2-(4-fluoro-phenyl)-5-methoxy-benzofuran-3-carboxylic acid methylamide] are 500 to 5000 nM and less than 1000 nM.
On the same counts, the results for `CNC(=O)c1c(-c2ccc(F)cc2)oc2cc(-c3c(C)noc3C)c(OCc3cc(C)on3)cc12` [Example 409, 6-(3,5-Dimethyl-isoxazol-4-yl)-2-(4-fluoro-phenyl)-5-(5-methyl-isoxazol-3-ylmethoxy)-benzofuran-3-carboxylic acid methylamide] are no more than 500 nM and less than 1000 nM.
On the same counts, the results for `CNC(=O)c1c(-c2ccc(F)cc2)oc2cc(-c3c(C)noc3C)c(OCc3nccs3)cc12` [Example 410, 6-(3,5-Dimethyl-isoxazol-4-yl)-2-(4-fluoro-phenyl)-5-(thiazol-2-ylmethoxy)-benzofuran-3-carboxylic acid methylamide] are no more than 500 nM and less than 1000 nM.

Values taken from patent publication US7265152B2 (ViroPharma Incorporated, priority 2002, dated 2007).
